Laboratory results published in patent US11311598B2, “Peptides and analogs for use in the treatment of oral mucositis” (Soligenix, Inc., priority 2013, dated 2022).
Where no end group is shown, it is not given here.

Key:
[1] = tested on: Gram-positive and Gram-negative infections; details: mouse, in vivo
[2] = tested on: S. aureus (Catalog No. 29213, ATCC); assay: S. aureus thigh abscess infection model in neutropenic mice; assay type: in vivo, mouse; details: neutropenic female Swiss albino mice, 50 mg/kg IM 24 h prior to infection; 24 h after infection
Description: Female Swiss albino mice (N=8/group) were rendered neutropenic by treatment with Cp (100 mg/kg), 3 and 1 days before IM infection with S. aureus (Catalog No. 29213, ATCC, ^˜9.5×10^5 cfu). RIVPA (SEQ ID NO. 5) (50 mg/kg) was administered IM 24 h prior to infection and vancomycin (100 mg/kg) was administered SC at 1, 6 and 18 h after infection. The number of bacterial cfu present in the infected thigh was assessed 24 h after initiation of infection in each group.

metabolism and excretion = details: in vivo
MRSA (USA300) = assay type: in vivo, mouse
Description: Multiple studies with IV administered RIVPA (SEQ ID NO. 5) were conducted in a MRSA bacteremia model. […] In the first study, MRSA (USA300, 7.3 log 10 cfu) was administered via IV injection into the tail vein of female Balb/c mice at time 0. Four hours prior to infection, a single dose of saline or RIVPA (SEQ ID NO. 5) at the indicated dose levels was injected IV into the tail vein. Sub-optimal antibiotic treatment (linezolid, 6.25 mg/kg) was administered once orally immediately after infection. Survival was monitored for 21 days after the infection. In the second study, RIVPA (SEQ ID NO. 5) (IV) or saline (IV) was administered once 4 h prior to infection with MRSA (strain USA300, 7.0 log10 cfu) via the tail vein into female nu/nu mice.

mice = assay: mouse IV toxicity studies (pilot single dose, GLP 14-day, acute); assay type: in vivo
Description: Two pilot and 2 definitive repeat-dose toxicity studies were conducted with RIVPA (SEQ ID NO. 5) in mice and cynomolgus monkeys using the intravenous (IV; slow bolus) route of administration. All studies were conducted by LAB Research Inc., Canada.
These resolved within a few minutes without detectable residual effects.
The safety of multiple daily injections of RIVPA (SEQ ID NO. 5) has also been evaluated in GLP studies in mice and cynomolgus monkeys. In mouse, doses of 20, 60, or 90 mg/kg/day were given IV for 14 days.
The observed respiratory depression occurred at different dose levels in different species, and was not predicted by allometric scaling. In particular, the mouse appeared to be the most sensitive species with acute toxicity occurring rarely at 60 mg/kg (HED: ^˜5 mg/kg) and commonly at 90 mg/kg (HED: ^˜7 mg/kg). In contrast in NHP (cynomologus monkey), acute toxicity occurred occasionally at 160 mg/kg (HED: ^˜50 mg/kg) and consistently at 240 mg/kg (HED: ^˜78 mg/kg).

cynomolgus monkey = assay: cardiovascular (CV)/pulmonary study in cynomolgus monkey; assay type: in vivo
Text: In summary, the major toxicological finding was an acute-onset respiratory depression, accompanied by labored breathing, recumbency and transient decreased activity.

leukopenic animals = assay: infection studies in leukopenic animals (antibiotic interference); assay type: in vivo
MRSA (UC6685) = assay: MRSA peritoneal infection model in combination with vancomycin; assay type: in vivo, mouse; details: female CF-1 mice, 50 mg/kg IV 48 or 72 h prior to inoculation, with vancomycin 3 mg/kg SC 1 and 5 h after infection; 5 days
Description: RIVPA (SEQ ID NO. 5) (50 mg/kg) or saline treatment was administered IV either 48 or 72 h prior to inoculation with MRSA (UC6685; 8.2×10^7 colony forming units [cfu]) to female CF-1 mice (N=10/group). Vancomycin treatment (3 mg/kg) was administered subcutaneously (SC), 1 and 5 h after infection. Survival was monitored once daily for 5 days.

MRSA = MRSA skin infection model; assay type: in vivo, mouse
Description: Infection was initiated 1 day after the hair was removed from the dorsal area of each mouse. RIVPA (SEQ ID NO. 5) (25 mg/kg IV or 100 mg/kg SC) was administered 4 h prior to infection and at various times after infection as indicated. Oral linezolid was used as the comparator and was administered daily at 12.5 mg/kg. On Day 0 (at −1 h) each mouse was anesthetized using isoflurane and the shaved dorsal skin was damaged by 7 consecutive applications and removals of surgical tape. This lesion was then immediately infected by topical administration of 10 μL of the bacterial suspension, delivering a total challenge of 7.6 login cfu per mouse. Efficacy was evaluated by measurement of the bacterial burden in punch biopsies of the skin at 48 h (FIG. 14—panel A) and 96 h (FIG. 14—panel B) following the bacterial challenge and by macroscopic assessment of digital images of the skin by a blinded, board-certified pathologist at 48 h (FIG. 14—panel C) and 96 h (FIG. 14—panel D) after infection. […] The mean bacterial burden for each therapeutic group was statistically compared to that of its time-matched saline control through use of a t-test comparison of means, assuming unequal variances, performed on Excel. Comparisons which returned a p value […] were considered statistically different.

Q: With RIVPA-NH2 [RIVPA (SEQ ID NO. 5), RIVPA] as the substance, how does the “duration of pharmacodynamic effect” value [1] read?
A: Its value is “up to 5 days”.

Q: What about the “dose levels with consistent efficacy” value ([1]; iv) of the same substance?
A: Its value is at least 25 mg/kg.

Q: What about the “bacterial load in the infected thigh” value [2] of the same substance?
A: Its value is “significantly reduced”.

Q: What about the primary metabolism (metabolism and excretion) of the same substance?
A: The primary metabolism was “proteases throughout body tissues”.

Q: What about the “role of urine, feces and bile excretion in clearance” value (metabolism and excretion) of the same substance?
A: Its value is “very minor role”.

Q: What about the “duration for which the survival benefit is sustained” value (MRSA (USA300); FIG. 9) of the same substance?
A: Its value is “at least 21 days”.

Q: What about the “time after initiation of infection at which administration still confers a survival benefit” value (MRSA (USA300); MRSA bacteremia model (data not shown)) of the same substance?
A: The value was “up to 24 h”.

Q: What about the “time prior to initiation of infection at which a single dose still confers a survival benefit” value (MRSA (USA300); depending on dose level (data not shown)) of the same substance?
A: The value was “up to 5 days”.

Q: What about the “survival over the saline control” value (MRSA (USA300); female Balb/c mice, single dose 50 mg/kg IV 4 h prior to infection, linezolid 6.25 mg/kg oral, 21 days) of the same substance?
A: The value was “statistically significant enhanced survival”.

Q: And the “immune-related organ weights, histopathology, hematology and clinical chemistry” value (mice; mouse 14-day toxicity study)?
A: Its value is “no changes were observed”.

Q: What about the adverse effects (mice; mouse, 20 mg/kg for 14 days) of the same substance?
A: The adverse effects was “No adverse effects were observed”.

Q: And the “mortality or clinical signs” value (mice; mouse, 20 mg/kg/day IV for 14 days)?
A: Its value is “No test article-related mortality or clinical signs”.

Q: And the “HED of acutely toxic dose” value (mice; mouse, 60 mg/kg)?
A: Its value is about 5 mg/kg.

Q: What about the “occurrence of acute toxicity (respiratory depression)” value (mice; mouse, 60 mg/kg) of the same substance?
A: The value was “rarely”.

Q: What about the mortality (mice; mouse, 60 mg/kg/day IV for 14 days) of the same substance?
A: Its mortality is “Lethality was also observed in 1 animal”.

Q: And the “HED of acutely toxic dose” value (mice; mouse, 90 mg/kg)?
A: The value was about 7 mg/kg.

Q: What about the “occurrence of acute toxicity (respiratory depression)” value (mice; mouse, 90 mg/kg) of the same substance?
A: The value was “commonly”.

Q: What about the mortality (mice; mouse, 90 mg/kg/day IV for 14 days) of the same substance?
A: The mortality was “Deaths were observed”.

Q: And the “organ toxicity, biochemistry, hematology” value (mice; mouse, survivors of all groups, 14 days)?
A: Its value is “no evidence of toxicity in any organ or abnormal biochemistry or hematology”.

Q: And the clinical signs (cynomolgus monkey; 80 mg/kg, during dosing)?
A: Its clinical signs is “transient drooping eye lids and prostration”.

Q: What about the clinical signs (cynomolgus monkey; 220 mg/kg) of the same substance?
A: Its clinical signs is “transient, severe clinical signs”.

Q: What about the “respiratory/cardiovascular effects and mortality” value (cynomolgus monkey; 220 mg/kg, 1 animal) of the same substance?
A: Its value is “marked reduction in respiratory rate followed by bradycardia, hypotension and death”.

Q: What about the respiratory effects (cynomolgus monkey; 20 or 80 mg/kg) of the same substance?
A: Its respiratory effects is “No respiratory effects”.

Q: What about the “cardiac toxicity or QT prolongation” value (cynomolgus monkey; nonhuman primates) of the same substance?
A: The value was “no cardiac toxicity or QT prolongation”.

Q: What about the “cardiovascular effects and ECG parameters” value (cynomolgus monkey; single IV doses of 20 or 80 mg/kg) of the same substance?
A: Its value is “no cardiovascular effects or changes in electrocardiogram (ECG) parameters”.

Q: What about the “interference with antibiotic efficacy” value (leukopenic animals) of the same substance?
A: Its value is “no interference”.

Q: What about the survival (MRSA (UC6685)) of the same substance?
A: The survival was “increased survival”.

Q: And the skin healing (MRSA; 25 mg/kg IV or 100 mg/kg SC, 4 h prior to infection and after)?
A: Its skin healing is “accelerating skin healing”.

Q: What about the “bacterial load in skin punch biopsies relative to control” value (MRSA; 48 or 96 h after bacterial challenge) of the same substance?
A: Its value is “neither linezolid nor RIVPA (SEQ ID NO. 5) reduced bacterial load”.

Q: And the “resolution of tissue damage in topically MRSA-infected skin” value (MRSA; FIG. 14)?
A: Its value is “enhances”.
